Reference: patent US12030906B2, “Crystalline forms of (s)-2-ethylbutyl 2-(((s)-(((2r,3s,4r,5r)-5-(4-aminopyrrolo[2,1-f] [1,2,4]triazin-7-yl)-5-cyano-3,4-dihydroxytetrahydrofuran-2-yl)methoxy) (phenoxy) phosphoryl)amino)propanoate” (priority 2017, dated 2024)
Read-outs that look alike come from different tables or passages of the source.

Experiments:
[1] = Competition experiment between Formula I Form I and Formula I Form II in isopropyl acetate; format: physicochemical; conditions: Experiment 26; Form I 11 mg + Mixture II 55.4 mg in IPAc 889 mg; 75 mg/g; suspension
Experimental: A competition experiment between Formula I Form I and Formula I Form II was conducted by mixing Formula I Form I with isopropyl acetate, followed by adding Mixture II, a mixture of Formula I Form II and Formula I Form IV.

[2] = format: physicochemical; conditions: for XRPD: room temperature, two weeks
[3] = Competition experiment between Formula I Form II and Formula I Form IV in IPA/Water at 50° C.; format: physicochemical
[4] = Experiment 023, wt % water 9.3, 1 day in suspension, Temp. 50
[5] = Experiment 030, wt % water 4.9, 1, 3 days in suspension, Temp. 50
[6] = Experiment 033, wt % water 39.5, 3 days in suspension, Temp. 50
[7] = Experiment 034, wt % water 49.9, 1, 3 days in suspension, Temp. 50

CCC(CC)COC(=O)[C@H](C)N[P@](=O)(OC[C@H]1O[C@@](C#N)(c2ccc3c(N)ncnn23)[C@H](O)[C@@H]1O)Oc1ccccc1 [Formula I Form I, (S)-2-ethylbutyl 2-(((S)-(((2R,3S,4R,5R)-5-(4-aminopyrrolo[2,1-f][1,2,4]triazin-7-yl)-5-cyano-3,4-dihydroxytetrahydrofuran-2-yl)methoxy)(phenoxy)phosphoryl)amino)propanoate]
Comment (form conversion) [1]: Form II in 1 day

CCC(CC)COC(=O)[C@H](C)N[P@](=O)(OC[C@H]1O[C@@](C#N)(c2ccc3c(N)ncnn23)[C@H](O)[C@@H]1O)Oc1ccccc1 [Formula I Form II, (S)-2-ethylbutyl 2-(((S)-(((2R,3S,4R,5R)-5-(4-aminopyrrolo[2,1-f][1,2,4]triazin-7-yl)-5-cyano-3,4-dihydroxytetrahydrofuran-2-yl)methoxy)(phenoxy)phosphoryl)amino)propanoate]
more stable form ([2]; several competition experiments): more stable form

CCC(CC)COC(=O)[C@H](C)N[P@](=O)(OC[C@H]1O[C@@](C#N)(c2ccc3c(N)ncnn23)[C@H](O)[C@@H]1O)Oc1ccccc1 [Formula I Mixture II, (S)-2-ethylbutyl 2-(((S)-(((2R,3S,4R,5R)-5-(4-aminopyrrolo[2,1-f][1,2,4]triazin-7-yl)-5-cyano-3,4-dihydroxytetrahydrofuran-2-yl)methoxy)(phenoxy)phosphoryl)amino)propanoate]
Comment (form conversion) [1]: Form II in 1 day | DSC [3, 4]: Form II | XRPD [3, 4]: Form II | DSC [3, 5]: Form II | XRPD [3, 5]: Form II | DSC [3, 6]: Form II | XRPD [3, 6]: Form II | DSC [3, 7]: Form II | XRPD [3, 7]: Form II | DSC ([3]; Experiment 037, wt % water 0.93, 2 days in suspension, Temp. 50, 22): Form II | conversion of form ([3]; IPA/Water (3/6 V/V) at 50° C. for several days, all experiments): conversion to Formula I Form II

CCC(CC)COC(=O)[C@H](C)N[P@](=O)(OC[C@H]1O[C@@](C#N)(c2ccc3c(N)ncnn23)[C@H](O)[C@@H]1O)Oc1ccccc1 [Formula I, (S)-2-ethylbutyl 2-(((S)-(((2R,3S,4R,5R)-5-(4-aminopyrrolo[2,1-f][1,2,4]triazin-7-yl)-5-cyano-3,4-dihydroxytetrahydrofuran-2-yl)methoxy)(phenoxy)phosphoryl)amino)propanoate]
XRPD ([2]; Experiment 12, 1-propanol): Partially converted to Form II | XRPD ([2]; Experiment 14, THF): Partially converted to Form II | XRPD ([2]; Experiment 16, 2-propanol): Partially converted to Form II | XRPD ([2]; Experiment 18, ACN): Form II | XRPD ([2]; Experiment 20, DCM): Partially converted to Form II | XRPD ([2]; Experiment 22, Ethanol): Form II | XRPD ([2]; Experiment 24, MTBE): Partially converted to Form II | XRPD ([2]; Experiment 26, 2MeTHF): Partially converted to Form II | XRPD ([2]; Experiment 28, EtOAc/water): Form II | XRPD ([2]; Experiment 30, MEK): Form II | XRPD ([2]; Experiment 32, Ethanol/water aw 0.4): Form II
